How the values were obtained:
[1] = biological target: T1, DOR-eGFP (delta opioid receptor-eGFP) (Mus musculus, UniProt P32300); test: […]GTPgammaS binding, whole brain membranes; assay type: biochemical; conditions: agonist; 30 µM GDP, 0.1 nM [35S]GTPgammaS, 3 mM MgCl2, 100 mM NaCl, pH 7.4, 1 h, 25 °C; read-out: G protein coupling ([^35S]GTPγS binding) / EC50 (nM) / Striatum / E1/2 (min)
T1 construct: gene Oprd1; Full-length mouse delta receptor with C-terminal eGFP, knocked in at the native gene (exon 3, 5' of the stop codon); whole brain membranes of knock-in mice

[2] = biological target: T1, DOR-eGFP (delta opioid receptor-eGFP); test: [3H]naltrindole competition binding, whole brain membranes; conditions: 1 nM [3H]naltrindole, 1 h, 25 °C; read-out: Affinity (Competition Binding) / Ki (nM) / Concentration
From the text: [3H]naltrindole competition binding, whole brain membranes on DOR-eGFP (delta opioid receptor-eGFP)

T1 sequence (P32300 whole entry): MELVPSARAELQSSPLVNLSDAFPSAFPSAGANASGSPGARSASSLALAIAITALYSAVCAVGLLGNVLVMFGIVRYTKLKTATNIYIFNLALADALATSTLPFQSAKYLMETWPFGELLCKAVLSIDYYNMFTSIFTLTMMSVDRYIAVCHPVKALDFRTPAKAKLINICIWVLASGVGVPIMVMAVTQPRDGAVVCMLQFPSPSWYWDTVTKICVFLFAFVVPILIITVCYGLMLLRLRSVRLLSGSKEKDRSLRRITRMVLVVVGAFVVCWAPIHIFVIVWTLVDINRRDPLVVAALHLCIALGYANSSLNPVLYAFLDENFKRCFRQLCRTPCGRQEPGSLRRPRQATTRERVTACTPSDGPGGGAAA

Work on `CCN(CC)C(=O)c1ccc(C(=C2CCNCC2)c2ccccc2)cc1` [ARM390, N,N-diethyl-4-(phenyl-piperidin-4-ylidenemethyl)-benzamide] yielded an EC50 [1] of 169 ± 9.5 nM and a Ki [2] of 2.3 ± 0.3 nM.
